Results: US20240173440A1, “HIGH PURITY COPPER RADIOPHARMACEUTICAL COMPOSITIONS AND DIAGNOSTIC AND THERAPEUTIC USES THEREOF” (Nuclidium AG, priority 2022, published 2024)

What was measured:
[1] = tested on: HT-1080.hFAP and HT-1080.wt xenografts; test: Quantitative biodistribution in HT-1080.hFAP and HT-1080.wt xenografted mice; type: in vivo; conditions: for Biodistribution HT-1080.wt: FAP-negative tumor; for Biodistribution HT-1080.hFAP: FAP-positive tumor
Method: The tumors were allowed to grow to an average volume of 100-200 mm3.
Biodistribution Studies: The xenografted mice were randomized (n=5 per group) and injected intravenously via the tail vein with the ^61Cu-labeled radioligands (100 μL, […], 0.8-1MBq). Mice were euthanized 1h and 4h pi. by CO2 asphyxiation. Organs of interest and blood were collected, rinsed of excess blood, blotted dry, weighed, and counted in a […]. The samples were counted against a suitably diluted aliquot of the injected solution as the standard and the results are expressed as the percentage of the injected activity per gram of tissue (0% I.A./g)+SD.

hFAP = hFAP (Homo sapiens (Human), UniProt Q12884); test: Saturation binding on isolated HEK-293.hFAP cell membranes; design: Bmax: unit not given here; conditions: 37° C.
Method: The cells were homogenized using Ultra-Turrax, and the homogenized suspension was centrifuged at 500×g for 10 min at 4° C. The supernatant was collected in centrifuge tubes (Beckman Coulter Inc., Brea, CA, USA). This procedure was then repeated 5 times. The collected supernatant was centrifuged in an ultra-centrifuge (Beckman) at 4° C. for 55 min at 49,000×g. Then, the pellet was re-suspended in 10 mM ice-cold HEPES buffer (pH 7.5), aliquoted, and stored at −80° C. The protein concentration of those membrane suspensions was determined by the Bradford method, BSA as the standard.
Each assay tube contained 170 μL of binding buffer (20 mM HEPES, pH 7.4, containing 4 mM μgCl2, 0.2% BSA, 20 μg/L bacitracin, 20 μg/L PMSF and 200,000 KIU/L aprotinin). The incubation was initiated by adding 30 μL of radioligand solution at 10 times the final concentration and 100 μL of cell membrane suspension to yield 10 μg of protein per well. For the determination of the non-specific binding, 140 μL of the above binding buffer was added along with 30 μL of FAPI-46 to obtain (0.1 mM). Bound fractions were plotted versus the corresponding radioligand concentration at equilibrium. The dissociation constant (KD) and maximal binding capacity (Bmax) values were calculated using GraphPad Software Inc., Prism 7, San Diego, CA, USA (Table 33 and FIG. 21).

LNCaP xenografts = test: Quantitative biodistribution in LNCaP xenografted mice; type: in vivo; conditions: LNCap xenograft mice, 1 h after injection
Method: The mice were randomly distributed in groups and euthanized at 1 and at 4 hours post-injection. The organs of interest were collected, rinsed, blotted, weighed and counted in a gamma counter. The results are expressed as percentage of injected activity per gram (% IA/g), representing the mean±standard deviation of n=4-8 mice per group and they were obtained by extrapolation from counts of an aliquot taken from the injected solution as standard.
The biodistribution of the [^61Cu]Cu-NODAGA radiotracers was compared with the reference compounds used in patients under identical experimental conditions. The mice were randomly distributed in groups, injected with the radiotracer under investigation and euthanized at 1 and at 4 hours post-injection of the radiotracers under investigation. The organs of interest were collected, rinsed, blotted, weighed and counted in a gamma counter. The results are expressed as percentage of injected activity per gram (% IA/g), representing the mean±standard deviation of all mice per group and they were obtained by extrapolation from counts of an aliquot taken from the injected solution as standard.

[2] = Lipophilicity, log D by shake-flask method (1-octanol/PBS pH 7.4); type: physicochemical; conditions: shake-flask, Table 17, mean ± SD
Method: The radiotracer (1 μM) was added to a 50:50 pre-saturated mixture of 1-octanol and phosphate buffered saline (PBSpH 7.4). The solution was vortexed for 30 min and then centrifuged at 3,000 rpm to achieve a phase separation. Aliquots from each phase were collected and measured in a gamma-counter. The distribution coefficient was calculated as the average of the logarithmic values of the ratio between the radioactivity in the organic and the PBS phase.
Table 17. Lipophilicity expressed as the log distribution coefficient D (log D(Octanol/PBS pH7.4)) of ^61Cu-radiotracers versus ^68Ga-radiotracers (reference radiotracers).
In a pre-lubricated Eppendorf tube, a pre-saturated mixture of 500 μL of 1-octanol and 500 μL of PBS pH 7.4 (phosphate-buffered saline) were added. An aliquot of […] in 10 μL of the radioligand was added to this mixture, shaken for 30 min, and then centrifuged at 3000 rcf for 10 min to achieve phase separation. Aliquots of 100 μL were removed from the 1-octanol and from the PBS phases, and the activity was measured in a […]. The partition coefficient was calculated as the average log ratio value of the radioactivity in the organic fraction and PBS fraction.

[3] = 1 h p.i., HT-1080.hFAP and HT-1080.wt xenografts
[4] = 4 h p.i., HT-1080.hFAP and HT-1080.wt xenografts

hFAP, sequence (Q12884 whole entry): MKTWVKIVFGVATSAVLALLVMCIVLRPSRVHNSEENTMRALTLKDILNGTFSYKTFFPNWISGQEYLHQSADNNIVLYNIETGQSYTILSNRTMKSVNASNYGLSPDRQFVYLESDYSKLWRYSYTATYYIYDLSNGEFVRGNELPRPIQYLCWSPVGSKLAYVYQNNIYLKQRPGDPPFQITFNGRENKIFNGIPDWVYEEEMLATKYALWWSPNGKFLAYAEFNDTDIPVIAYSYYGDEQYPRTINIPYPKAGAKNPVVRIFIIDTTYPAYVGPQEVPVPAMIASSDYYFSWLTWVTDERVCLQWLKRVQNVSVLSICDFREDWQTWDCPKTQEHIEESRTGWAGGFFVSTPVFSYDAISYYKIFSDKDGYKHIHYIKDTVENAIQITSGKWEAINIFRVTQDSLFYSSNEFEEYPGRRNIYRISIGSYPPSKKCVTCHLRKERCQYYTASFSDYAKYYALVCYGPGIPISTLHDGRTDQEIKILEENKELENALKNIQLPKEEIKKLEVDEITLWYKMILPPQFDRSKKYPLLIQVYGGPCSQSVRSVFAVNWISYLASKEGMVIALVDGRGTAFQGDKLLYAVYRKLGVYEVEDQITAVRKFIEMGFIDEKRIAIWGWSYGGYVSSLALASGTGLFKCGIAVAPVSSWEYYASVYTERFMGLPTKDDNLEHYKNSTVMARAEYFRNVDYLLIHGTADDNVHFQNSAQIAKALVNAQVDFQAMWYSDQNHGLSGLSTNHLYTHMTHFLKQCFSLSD

CN(C(=O)CCC(=O)NCCNC(=O)CC[C@H](C(=O)O)N1CCN2CCN(CC1)CC(=O)[O][61Cu][O]C(=O)C2)c1ccc2nccc(C(=O)NCC(=O)N3CC(F)(F)C[C@H]3C#N)c2c1 [[^61Cu]Cu-NODAGA-F2]
Biodistribution Heart ([1]; 1 hour p.i.): 0.6 ± 0.1 % I.A./g | Biodistribution Intestine ([1]; 1 hour p.i.): 0.5 ± 0.1 % I.A./g | Biodistribution Liver ([1]; 1 hour p.i.): 0.6 ± 0.1 % I.A./g | Biodistribution Lung ([1]; 1 hour p.i.): 0.8 ± 0.1 % I.A./g | Biodistribution Muscle ([1]; 1 hour p.i.): 0.9 ± 0.1 % I.A./g | Biodistribution Spleen ([1]; 1 hour p.i.): 0.4 ± 0.1 % I.A./g | Biodistribution Stomach ([1]; 1 hour p.i.): 0.6 ± 0.1 % I.A./g | Biodistribution Adrenal [1, 3]: 1.5 ± 0.3 % IA/g | Biodistribution Blood [1, 3]: 1.2 ± 0.1 % IA/g | Biodistribution Femur [1, 3]: 2.4 ± 0.3 % IA/g | Biodistribution HT1080.hFAP (FAP-positive tumor) [1, 3]: 3.5 ± 1.0 % IA/g | Biodistribution HT1080.wt (FAP-negative tumor) [1, 3]: 1.4 ± 0.2 % IA/g | Biodistribution Heart [1, 3]: 0.6 ± 0.1 % IA/g | Biodistribution Intestine [1, 3]: 0.5 ± 0.1 % IA/g | Biodistribution Kidney [1, 3]: 1.1 ± 0.1 % IA/g | Biodistribution Liver [1, 3]: 0.6 ± 0.1 % IA/g | Biodistribution Lung [1, 3]: 0.8 ± 0.1 % IA/g | Biodistribution Muscle [1, 3]: 0.9 ± 0.1 % IA/g | Biodistribution Pancreas [1, 3]: 1.1 ± 0.2 % IA/g | Biodistribution Spleen [1, 3]: 0.4 ± 0.1 % IA/g | Biodistribution Stomach [1, 3]: 0.6 ± 0.1 % IA/g | Biodistribution Adrenal ([1]; 4 hours p.i.): 0.3 ± 0.1 % I.A./g | Biodistribution Blood ([1]; 4 hours p.i.): 0.5 ± 0.1 % I.A./g | Biodistribution Heart ([1]; 4 hours p.i.): 0.3 ± 0.0 % I.A./g | Biodistribution Intestine ([1]; 4 hours p.i.): 0.3 ± 0.1 % I.A./g | Biodistribution Kidneys ([1]; 4 hours p.i.): 1.0 ± 0.1 % I.A./g | Biodistribution Liver ([1]; 4 hours p.i.): 0.6 ± 0.1 % I.A./g | Biodistribution Lung ([1]; 4 hours p.i.): 0.4 ± 0.0 % I.A./g | Biodistribution Muscle ([1]; 4 hours p.i.): 0.4 ± 0.1 % I.A./g | Biodistribution Pancreas ([1]; 4 hours p.i.): 0.5 ± 0.0 % I.A./g | Biodistribution Spleen ([1]; 4 hours p.i.): 0.2 ± 0.0 % I.A./g | Biodistribution Stomach ([1]; 4 hours p.i.): 0.3 ± 0.1 % I.A./g | Biodistribution Adrenal [1, 4]: 0.3 ± 0.1 % IA/g | Biodistribution Blood [1, 4]: 0.5 ± 0.1 % IA/g | Biodistribution Femur [1, 4]: 1.6 ± 0.3 % IA/g | Biodistribution HT1080.hFAP (FAP-positive tumor) [1, 4]: 4.0 ± 0.6 % IA/g | Biodistribution HT1080.wt (FAP-negative tumor) [1, 4]: 0.9 ± 0.1 % IA/g | Biodistribution Heart [1, 4]: 0.3 ± 0.0 % IA/g | Biodistribution Intestine [1, 4]: 0.3 ± 0.1 % IA/g | Biodistribution Kidney [1, 4]: 1.0 ± 0.1 % IA/g | Biodistribution Liver [1, 4]: 0.6 ± 0.1 % IA/g | Biodistribution Lung [1, 4]: 0.4 ± 0.0 % IA/g | Biodistribution Muscle [1, 4]: 0.4 ± 0.1 % IA/g | Biodistribution Pancreas [1, 4]: 0.5 ± 0.0 % IA/g | Biodistribution Spleen [1, 4]: 0.2 ± 0.0 % IA/g | Biodistribution Stomach [1, 4]: 0.3 ± 0.1 % IA/g | Biodistribution HT-1080.wt ([1]; 1 hour p.i.): 1.4 ± 0.2 % I.A./g | Biodistribution HT-1080.wt ([1]; 4 hours p.i.): 0.9 ± 0.1 % I.A./g | Biodistribution HT-1080.hFAP ([1]; 1 hour p.i.): 3.5 ± 1.0 % I.A./g | Biodistribution HT-1080.hFAP ([1]; 4 hours p.i.): 4.0 ± 0.6 % I.A./g | accumulation in tumor and target-positive tissues ([1]; HT-1080.hFAP and HT-1080.wt xenografts): high accumulation in FAP-positive (HT-1080.hFAP) tumor and murine-FAP-positive tissues | Bmax (hFAP): 7.7-8.4

CN(C(=O)CCC(=O)N1CCN(C(=O)CC[C@H](C(=O)O)N2CCN3CCN(CC2)CC(=O)[O][Cu][O]C(=O)C3)CC1)c1ccc2nccc(C(=O)NCC(=O)N3CC(F)(F)C[C@H]3C#N)c2c1 [[^61Cu]Cu-NODAGA-F4]
Kd (hFAP): 3 to 3.9 nM

O=C([O-])CN(CCN(CC(=O)[O-])Cc1cc(CCC(=O)NCCCCCC(=O)NCCCC[C@H](NC(=O)N[C@@H](CCC(=O)O)C(=O)O)C(=O)O)ccc1[O-])Cc1cc(CCC(=O)O)ccc1[O-].[68Ga+3].[OH3+] [[^68Ga]Ga-PSMA-11]
Biodistribution Adrenal (LNCaP xenografts): 19.2 ± 5.35 % IA/g | Biodistribution Blood (LNCaP xenografts): 0.25 ± 0.07 % IA/g | Biodistribution Bone (LNCaP xenografts): 3.69 ± 1.86 % IA/g | Biodistribution Heart (LNCaP xenografts): 0.32 ± 0.10 % IA/g | Biodistribution Intestine (LNCaP xenografts): 1.52 ± 0.60 % IA/g | Biodistribution Kidney (LNCaP xenografts): 159 ± 31 % IA/g | Biodistribution LNCaP-tumor (LNCaP xenografts): 10.2 ± 1.53 % IA/g | Biodistribution Liver (LNCaP xenografts): 0.54 ± 0.27 % IA/g | Biodistribution Lung (LNCaP xenografts): 1.43 ± 0.43 % IA/g | Biodistribution Muscle (LNCaP xenografts): 0.90 ± 0.36 % IA/g | Biodistribution Pancreas (LNCaP xenografts): 0.70 ± 0.12 % IA/g | Biodistribution Salivary gland (LNCaP xenografts): 1.56 ± 0.31 % IA/g | Biodistribution Spleen (LNCaP xenografts): 6.38 ± 1.37 % IA/g | Biodistribution Stomach (LNCaP xenografts): 0.69 ± 0.11 % IA/g | Ratio Tumor/Blood (LNCaP xenografts): 45.3 ± 19.7 | Ratio Tumor/Kidney (LNCaP xenografts): 0.07 ± 0.02 | Ratio Tumor/Liver (LNCaP xenografts): 23.5 ± 12.5 | Ratio Tumor/Muscles (LNCaP xenografts): 13.6 ± 8.3 | log D(O/PBS pH 7.4) [2]: −3.89 ± 0.19
